PubChem BioAssay (NCI)
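Interpolation was linear, between the two tested concentrations surrounding the appropriate level; five concentrations were tested over 48 hours in 96-well plates. GI50 marks 50% less growth. The concentration for full growth arrest is given as TGI.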

Legend:
Assay in all cases: inhibition of tumour cell growth, NCI panel, 48 h
T-47D breast = tested on: T-47D breast
HCT-116 colon = tested on: HCT-116 colon
NCI-H226 lung = tested on: NCI-H226 lung
NCI/ADR-RES ovarian = tested on: NCI/ADR-RES ovarian
A549 NSCLC = tested on: A549 NSCLC
CAKI-1 renal = tested on: CAKI-1 renal
MDA-MB-435 = tested on: MDA-MB-435
K-562 leukemia = tested on: K-562 leukemia
BT-549 breast = tested on: BT-549 breast
M14 melanoma = tested on: M14 melanoma

| SMILES | TGI (T-47D breast) [µM] | TGI (HCT-116 colon) [µM] | TGI (NCI-H226 lung) [µM] | TGI (NCI/ADR-RES ovarian) [µM] | TGI (A549 NSCLC) [µM] | TGI (CAKI-1 renal) [µM] | TGI (MDA-MB-435) [µM] | TGI (K-562 leukemia) [µM] | TGI (BT-549 breast) [µM] | TGI (M14 melanoma) [µM] | GI50 (T-47D breast) [µM] | GI50 (M14 melanoma) [µM] | GI50 (HCT-116 colon) [µM] | GI50 (NCI-H226 lung) [µM] | GI50 (NCI/ADR-RES ovarian) [µM] | GI50 (A549 NSCLC) [µM] | GI50 (CAKI-1 renal) [µM] | GI50 (MDA-MB-435) [µM] | GI50 (K-562 leukemia) [µM] |
| --- | --- | --- | --- | --- | --- | --- | --- | --- | --- | --- | --- | --- | --- | --- | --- | --- | --- | --- | --- |
| NC(=O)c1c(NC=O)ncn1C1OCC(O)C(O)C1O (configuration not stated) | > 100 | > 100 | > 100 | > 100 | > 100 | > 100 | > 100 | > 100 | > 100 |  |  |  |  |  |  |  |  |  |  |
| CC[C@H](C)C1=C(O)[N@+]2([O-])Oc3ccc(-c4c(O)c(O)c(-c5ccc(O)cc5)c(OC(C)=O)c4OC(C)=O)cc3O[C@]2([C@@H](C)CC)C(=O)N1O | > 50 | 20.2 |  | > 50 | > 50 | > 50 | > 50 | > 50 | > 50 | > 50 |  |  |  |  |  |  |  |  |  |
| CN(C)c1cccc2c1C(=O)C=CC21CCc2ccc(N(C)C)c3c(N(C)C)ccc1c23 (configuration not stated) | > 100 | 22.9 | 33 | > 100 | 42.3 | 40 | 28.6 | 24.2 |  | 29.1 |  |  |  |  |  |  |  |  |  |
| O=C(Nc1nnc(-c2c(Cl)c(Cl)c(Cl)c(Cl)c2-c2nc3cc(C(=O)c4ccccc4)ccc3[nH]2)o1)c1ccc(Cl)cc1 | > 100 | > 100 | > 100 | > 100 | > 100 | > 100 | > 100 | > 100 | > 100 | > 100 |  |  |  |  |  |  |  |  |  |
| COc1nc2c(c(=O)n1C)N=C(c1ccc(Cl)cc1)CC(c1ccccc1)N2 (configuration not stated) |  | 63.5 | 45.6 | > 100 | > 100 | 74.5 | > 100 | 54.2 | 67.5 | > 100 |  |  |  |  |  |  |  |  |  |
| Nc1c2c(nc3ccccc13)-c1ccccc1NCCC2 | 77.9 | 94.3 | > 100 | > 100 | > 100 | > 100 | 58.2 | > 100 | > 100 | 33.3 |  |  |  |  |  |  |  |  |  |
| C=CCc1cc(C(Cc2ccccc2)NC(C)C)cc(OCc2ccccc2)c1OCc1ccccc1 (configuration not stated) | 29.2 | 31.2 | 36.2 | 30.7 | 30.5 | 29.5 | 29.2 | 40.9 | 31.4 | 28.8 |  |  |  |  |  |  |  |  |  |
| COc1cc(C2c3cc4c(cc3[C@@H](Oc3ccc(F)cc3)C3COC(=O)[C@H]23)OCO4)cc(OC)c1O (some centres not stated) |  | > 100 |  |  | > 100 | 14.5 |  | 30.4 |  |  |  |  |  |  |  |  |  |  |  |
| NC(Cc1ncccn1)C(=O)O (configuration not stated) | > 100 | > 100 | > 100 | > 100 | > 100 | > 100 | > 100 | > 100 | > 100 | > 100 |  |  |  |  |  |  |  |  |  |
| S=C(N1CCN(c2cccc(Cl)c2)CC1)N1CCN(c2cccc(Cl)c2)CC1 | > 100 | > 100 | 88.4 | > 100 | > 100 | 83.7 | > 100 | > 100 | > 100 | > 100 |  |  |  |  |  |  |  |  |  |
| O=C(NCCNc1nccc(-c2c(-c3cccc(O)c3)nc3sccn23)n1)c1ccccc1 | 49 | 17.5 | 45.3 | > 100 | 46.5 | 29.6 | 12.8 | > 100 |  | 12.3 | 11 | 0.434 | 4.82 | 7.95 | 34.8 | 9.21 | 5.92 | 0.578 | 9.11 |
| COc1ccc2c3c([nH]c2c1)CCN(Cc1ccccc1)C3 | 69.1 | > 100 | 73.2 | 98.3 | > 100 |  | 60.6 | 51.3 |  | 34.8 |  |  |  |  |  |  |  |  |  |
| CC(C)(C)OC(=O)CN1CCN(CC(=O)N2CCN(C(=O)OCc3ccccc3)CC2)CCN(CC(=O)OC(C)(C)C)CCN(CC(=O)N2CCN(C(=O)OCc3ccccc3)CC2)CC1 | 18.8 | > 38 | 22.8 | 34.4 | 16.3 | 23.4 | 7.36 |  | 14.5 | 14.3 |  |  |  |  |  |  |  |  |  |
| O=S(=O)(/N=C(\NO)Nc1ccc(Cl)cc1)c1ccccc1 | > 83.3 | 24.3 | > 100 | 60.3 | > 100 | 23 | > 64 | > 100 | 33.7 | 48.6 |  |  |  |  |  |  |  |  |  |
| N#Cc1c(-c2ccc(Cl)cc2)c2c(N=Nc3c(O)ccc4ccccc34)[nH]nc2[nH]c1=O |  | 1.62 | 1.93 | 0.777 | 2.3 | 1.26 |  | > 20.7 | 0.619 | 0.563 |  |  |  |  |  |  |  |  |  |
| CCn1c2ccccc2c2ccc(C3C(C(=O)OC)=C(C)NC(C)=C3C(=O)OC)cc21 | > 100 | > 100 | > 100 | > 100 | > 100 | > 100 | > 100 | > 100 | > 100 |  |  |  |  |  |  |  |  |  |  |
| CC(C)(C)C1=CC(=C2C=Cc3ccccc3O2)C=C(C(C)(C)C)C1=O | 9.97 | 11.4 | 25.6 | 14.8 | 26.2 | 29.6 | 5.11 | 29.9 | 22.1 | 10.6 |  |  |  |  |  |  |  |  |  |
| CSc1c(CC(=O)Nc2ccc(Cl)cc2)n(Cc2ccccc2)c2ccccc12 | > 100 | > 100 | 71.8 | > 100 | > 100 | > 100 | > 100 | > 100 | 46.9 | > 100 |  |  |  |  |  |  |  |  |  |
| Cc1ccc2[nH]c3[nH]c(=S)[nH]c(=O)c3c2c1 | > 100 | > 100 | > 100 | > 100 | > 100 | > 100 | > 100 | > 100 | > 100 | > 100 |  |  |  |  |  |  |  |  |  |
| CCN(CC)CCCNc1[nH]ncc2c(C)c3nc4ccc(OC)cc4c3cc12 | 3.36 | 1.41 | 1.7 | > 100 | 2.73 | 29.3 | 2.46 | 1.64 | 3.19 | 3.26 |  |  |  |  |  |  |  |  |  |
| N#C/C(N)=C(\C#N)N=CNc1ccc(N)cc1 | > 100 | > 100 | > 100 | > 100 | > 100 | > 100 | > 100 | > 100 | > 100 | > 100 |  |  |  |  |  |  |  |  |  |
